Measurements as given in PubChem BioAssay (NCI).
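Five compound concentrations were applied to cells in 96-well plates for 48 hours; endpoints were derived by simple linear interpolation of the resulting dose-response curve. GI50 marks 50% less growth. The concentration for full growth arrest is given as TGI.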

Experiments:
Assay in all cases: NCI tumour cell line growth inhibition, 48 h
SW-620 colon = system: SW-620 colon
SR leukemia = system: SR leukemia
K-562 leukemia = system: K-562 leukemia
SNB-19 CNS = system: SNB-19 CNS
KM12 colon = system: KM12 colon
HOP-62 NSCLC = system: HOP-62 NSCLC
HCT-116 colon = system: HCT-116 colon
HS 578T breast = system: HS 578T breast
NCI/ADR-RES ovarian = system: NCI/ADR-RES ovarian
HCT-15 colon = system: HCT-15 colon
LOX IMVI melanoma = system: LOX IMVI melanoma
786-0 renal = system: 786-0 renal
SN12C renal = system: SN12C renal
SK-OV-3 ovarian = system: SK-OV-3 ovarian
OVCAR-3 ovarian = system: OVCAR-3 ovarian
SK-MEL-2 melanoma = system: SK-MEL-2 melanoma
SK-MEL-5 melanoma = system: SK-MEL-5 melanoma
MCF7 breast = system: MCF7 breast
IGROV1 ovarian = system: IGROV1 ovarian
CAKI-1 renal = system: CAKI-1 renal
DU-145 prostate = system: DU-145 prostate
OVCAR-5 ovarian = system: OVCAR-5 ovarian
HT29 colon = system: HT29 colon
SF-539 CNS = system: SF-539 CNS
NCI-H226 lung = system: NCI-H226 lung
SNB-75 CNS = system: SNB-75 CNS
SK-MEL-28 melanoma = system: SK-MEL-28 melanoma
A549 NSCLC = system: A549 NSCLC
CCRF-CEM leukemia = system: CCRF-CEM leukemia
HL-60(TB) leukemia = system: HL-60(TB) leukemia
A498 renal = system: A498 renal
M14 melanoma = system: M14 melanoma
SF-268 CNS = system: SF-268 CNS
SF-295 CNS = system: SF-295 CNS
RXF 393 renal = system: RXF 393 renal
HCC-2998 colon = system: HCC-2998 colon
PC-3 prostate = system: PC-3 prostate
TK-10 renal = system: TK-10 renal
U251 CNS = system: U251 CNS
RPMI-8226 leukemia = system: RPMI-8226 leukemia
OVCAR-8 ovarian = system: OVCAR-8 ovarian
MDA-MB-435 = system: MDA-MB-435
NCI-H522 lung = system: NCI-H522 lung
UO-31 renal = system: UO-31 renal
MOLT-4 leukemia = system: MOLT-4 leukemia
NCI-H23 lung = system: NCI-H23 lung
BT-549 breast = system: BT-549 breast
ACHN renal = system: ACHN renal
OVCAR-4 ovarian = system: OVCAR-4 ovarian
NCI-H460 lung = system: NCI-H460 lung
COLO 205 colon = system: COLO 205 colon
MDA-MB-231 breast = system: MDA-MB-231 breast
HOP-92 NSCLC = system: HOP-92 NSCLC
UACC-62 melanoma = system: UACC-62 melanoma

In the case of `COc1ccc(-c2cn[nH]c2-c2cc(OC)c3c(c2)OCO3)cc1`, the GI50 (SW-620 colon) is reported as 141 nM, the TGI (SW-620 colon) is reported as 23200 nM and the GI50 (SR leukemia) is reported as 63.1 nM. The TGI (SR leukemia) was 16800 nM, the GI50 (K-562 leukemia) was 46.7 nM and the TGI (K-562 leukemia) was greater than 66200 nM. The GI50 (SNB-19 CNS) was 2970 nM, the TGI (SNB-19 CNS) was 54600 nM and the GI50 (KM12 colon) was 92.9 nM. For the same molecule, the TGI (KM12 colon) was 11100 nM, the GI50 (HOP-62 NSCLC) was 309 nM and the TGI (HOP-62 NSCLC) was 24100 nM. The GI50 (HCT-116 colon) was 277 nM, the TGI (HCT-116 colon) was 11700 nM and the GI50 (HS 578T breast) was 311 nM. For the same molecule, the TGI (HS 578T breast) was 26200 nM, the GI50 (NCI/ADR-RES ovarian) was 120 nM and the TGI (NCI/ADR-RES ovarian) was 27400 nM. For the same molecule, the GI50 (HCT-15 colon) was 79.4 nM, the TGI (HCT-15 colon) was 14400 nM and the GI50 (LOX IMVI melanoma) was 599 nM. For the same molecule, the TGI (LOX IMVI melanoma) was 19200 nM, the GI50 (786-0 renal) was 585 nM and the TGI (786-0 renal) was 14200 nM. For the same molecule, the GI50 (SN12C renal) was 1100 nM, the TGI (SN12C renal) was 27700 nM and the GI50 (SK-OV-3 ovarian) was 386 nM. The TGI (SK-OV-3 ovarian) was 5450 nM, the GI50 (OVCAR-3 ovarian) was 196 nM and the TGI (OVCAR-3 ovarian) was 596 nM. For the same molecule, the GI50 (SK-MEL-2 melanoma) was 265 nM, the TGI (SK-MEL-2 melanoma) was 17800 nM and the GI50 (SK-MEL-5 melanoma) was 277 nM. For the same molecule, the TGI (SK-MEL-5 melanoma) was 8700 nM, the GI50 (MCF7 breast) was 116 nM and the TGI (MCF7 breast) was 15800 nM. For the same molecule, the GI50 (IGROV1 ovarian) was 984 nM, the TGI (IGROV1 ovarian) was 26700 nM and the GI50 (CAKI-1 renal) was 262 nM. For the same molecule, the TGI (CAKI-1 renal) was 24900 nM, the GI50 (DU-145 prostate) was 402 nM and the TGI (DU-145 prostate) was 14900 nM. The GI50 (OVCAR-5 ovarian) was 1340 nM, the TGI (OVCAR-5 ovarian) was 36600 nM and the GI50 (HT29 colon) was 102 nM. For the same molecule, the TGI (HT29 colon) was 12100 nM, the GI50 (SF-539 CNS) was 193 nM and the TGI (SF-539 CNS) was 539 nM. For the same molecule, the GI50 (NCI-H226 lung) was 1340 nM, the TGI (NCI-H226 lung) was 22300 nM and the GI50 (SNB-75 CNS) was 134 nM. For the same molecule, the TGI (SNB-75 CNS) was 707 nM, the GI50 (SK-MEL-28 melanoma) was 1220 nM and the TGI (SK-MEL-28 melanoma) was 28500 nM. It also gave a GI50 (A549 NSCLC) of 300 nM, a TGI (A549 NSCLC) of 20100 nM and a GI50 (CCRF-CEM leukemia) of 266 nM. The TGI (CCRF-CEM leukemia) was 21300 nM, the GI50 (HL-60(TB) leukemia) was 220 nM and the TGI (HL-60(TB) leukemia) was 771 nM. For the same molecule, the GI50 (A498 renal) was 63.2 nM, the TGI (A498 renal) was 1130 nM and the GI50 (M14 melanoma) was 207 nM. The TGI (M14 melanoma) was 12900 nM, the GI50 (SF-268 CNS) was 854 nM and the TGI (SF-268 CNS) was 31000 nM. The GI50 (SF-295 CNS) was 181 nM, the TGI (SF-295 CNS) was 4150 nM and the GI50 (RXF 393 renal) was 176 nM. For the same molecule, the TGI (RXF 393 renal) was 684 nM, the GI50 (HCC-2998 colon) was 649 nM and the TGI (HCC-2998 colon) was 11800 nM. The GI50 (PC-3 prostate) was 262 nM, the TGI (PC-3 prostate) was 21800 nM and the GI50 (TK-10 renal) was 1510 nM. It also gave a TGI (TK-10 renal) of 63300 nM, a GI50 (U251 CNS) of 321 nM and a TGI (U251 CNS) of 10700 nM. For the same molecule, the GI50 (RPMI-8226 leukemia) was 314 nM, the TGI (RPMI-8226 leukemia) was 14500 nM and the GI50 (OVCAR-8 ovarian) was 423 nM. The TGI (OVCAR-8 ovarian) was 15100 nM, the GI50 (MDA-MB-435) was 26.7 nM and the TGI (MDA-MB-435) was 83.8 nM. For the same molecule, the GI50 (NCI-H522 lung) was 55.5 nM, the TGI (NCI-H522 lung) was 1680 nM and the GI50 (UO-31 renal) was 669 nM. For the same molecule, the TGI (UO-31 renal) was 23100 nM, the GI50 (MOLT-4 leukemia) was 541 nM and the TGI (MOLT-4 leukemia) was 15100 nM. The GI50 (NCI-H23 lung) was 430 nM, the TGI (NCI-H23 lung) was 14700 nM and the GI50 (BT-549 breast) was 2260 nM. It also gave a TGI (BT-549 breast) of 25800 nM, a GI50 (ACHN renal) of 780 nM and a TGI (ACHN renal) of 48800 nM. The GI50 (OVCAR-4 ovarian) was 2150 nM, the TGI (OVCAR-4 ovarian) was 62900 nM and the GI50 (NCI-H460 lung) was 335 nM. For the same molecule, the TGI (NCI-H460 lung) was 11300 nM, the GI50 (COLO 205 colon) was 164 nM and the TGI (COLO 205 colon) was 768 nM. The GI50 (MDA-MB-231 breast) was 643 nM, the TGI (MDA-MB-231 breast) was 8350 nM and the GI50 (HOP-92 NSCLC) was 417 nM. It also gave a TGI (HOP-92 NSCLC) of 20800 nM, a GI50 (UACC-62 melanoma) of 397 nM and a TGI (UACC-62 melanoma) of 14900 nM.
